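Results reflect a 48-hour exposure of cells in 96-well plates to compound at five concentrations. GI50 is the concentration that inhibits growth by half. Definition used: TGI = concentration required for complete inhibition of growth.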

Some test systems named below: UACC-62 melanoma; T-47D breast; BT-549 breast; SW-620 colon; MDA-N; IGROV1 ovarian; A549 NSCLC; DU-145 prostate; SK-OV-3 ovarian; OVCAR-8 ovarian; DLD-1 colon; HOP-18 NSCLC.
Assay in all cases: NCI tumour cell line growth inhibition, 48 h

`O=C1Nc2ccccc2S/C1=C\c1ccccc1C(F)(F)F`: the TGI with UACC-62 melanoma, with T-47D breast, in the assay on BT-549 breast, in the assay with SW-620 colon, with MDA-N and in the assay on IGROV1 ovarian was above 100 µM in each case. Besides, the TGI in the assay on A549 NSCLC, in the assay with DU-145 prostate, in the assay with SK-OV-3 ovarian and in the assay with OVCAR-8 ovarian was above 100 µM in each case.

Consider `CCCCCCCCCCCCCCCC(=O)OCC1CCCN2CCCCC12` (configuration not stated), for which the TGI with UACC-62 melanoma, in the assay with BT-549 breast, in the assay with SW-620 colon, in the assay with MDA-N, with A549 NSCLC and in the assay with DU-145 prostate was above 100 µM each time. Besides, the TGI with SK-OV-3 ovarian and in the assay with OVCAR-8 ovarian was above 100 µM in each case.

On to `CC(C)OC(=O)C1=C(O)c2ccccc2S(=O)(=O)N1`, for which the TGI in the assay on UACC-62 melanoma, with SW-620 colon, in the assay on DLD-1 colon, with IGROV1 ovarian, with A549 NSCLC and in the assay on HOP-18 NSCLC was above 100 µM in each case. The TGI with SK-OV-3 ovarian and in the assay with OVCAR-8 ovarian was above 100 µM each time.

For `CC1CCC(O)(C(C)(C(=O)O)c2ccccc2)CC1` (configuration not stated), the TGI in the assay with UACC-62 melanoma, in the assay with T-47D breast, in the assay with BT-549 breast, with SW-620 colon, with MDA-N and in the assay with IGROV1 ovarian was above 100 µM throughout. The TGI with A549 NSCLC, with DU-145 prostate and in the assay on OVCAR-8 ovarian was above 100 µM each time.

For `Cc1ccc([N+](=O)[O-])cc1NC(=O)C(=O)C(C(=O)c1ccccc1F)C1OC(=O)c2ccccc21` (configuration not stated), the TGI with UACC-62 melanoma, with SW-620 colon, with DLD-1 colon, in the assay with IGROV1 ovarian, with A549 NSCLC and in the assay on SK-OV-3 ovarian was above 100 µM in each case. The TGI with OVCAR-8 ovarian was 90.8 µM.

Regarding `CC(=O)O[C@H]1CC[C@@]2(C)C(=CC[C@@H]3[C@@H]2CC[C@]2(C)Nc4c(cnn4S(C)(=O)=O)C[C@@H]32)C1`, the TGI with UACC-62 melanoma is above 100 µM; in the assay on T-47D breast, above 100 µM; with BT-549 breast, 72.5 µM; with MDA-N it was above 100 µM; with IGROV1 ovarian, above 100 µM; with DU-145 prostate it was above 100 µM. Further, the TGI in the assay on SK-OV-3 ovarian and in the assay on OVCAR-8 ovarian was above 100 µM each time.

For `O=C(O)NCc1ccccc1` (tested in a mixture with another compound), the TGI in the assay on UACC-62 melanoma is 37.2 µM; with T-47D breast, above 81.6 µM; with BT-549 breast, above 92.3 µM; in the assay with SW-620 colon it was above 100 µM; with MDA-N, above 94.4 µM; in the assay on IGROV1 ovarian, above 100 µM. For the same compound, the TGI with A549 NSCLC, in the assay with DU-145 prostate, with SK-OV-3 ovarian and with OVCAR-8 ovarian was above 100 µM throughout.

`Cc1ccc(S(=O)(=O)N/N=c2\c(C)c(C3=NS(=O)(=O)c4cc(S(N)(=O)=O)c(Cl)cc4N3)oc3c(Cl)cc(Cl)cc23)cc1`: the TGI in the assay on UACC-62 melanoma is above 100 µM; in the assay with SW-620 colon, 22.9 µM; in the assay on DLD-1 colon, above 100 µM; in the assay on IGROV1 ovarian, above 100 µM; in the assay on A549 NSCLC it was above 100 µM; with HOP-18 NSCLC it was above 100 µM. The TGI in the assay with SK-OV-3 ovarian and in the assay on OVCAR-8 ovarian was above 100 µM each time.

Take `CCOC(=O)Nc1cc2c(c(N)n1)N=C(c1ccccc1)[C@H](C)N2`: the TGI with UACC-62 melanoma was 21.2 µM; in the assay with SW-620 colon, above 100 µM; in the assay on MDA-N, 0.000122 µM; in the assay on DLD-1 colon, 25.1 µM; in the assay on IGROV1 ovarian, above 100 µM; in the assay with A549 NSCLC it was above 100 µM. Besides, the TGI is above 100 µM in the assay with HOP-18 NSCLC, 78.8 µM with SK-OV-3 ovarian and above 100 µM with OVCAR-8 ovarian. Besides, the GI50 with HOP-18 NSCLC was 29.1 µM; in the assay with SK-OV-3 ovarian it was below 0.0001 µM.

Take `C/C(=N\Oc1cc(Cl)ncn1)c1ccccn1`: the TGI with UACC-62 melanoma, in the assay on T-47D breast, in the assay on BT-549 breast, with SW-620 colon, with MDA-N and in the assay on IGROV1 ovarian was above 100 µM throughout. Besides, the TGI in the assay with A549 NSCLC, in the assay with DU-145 prostate, in the assay on SK-OV-3 ovarian and in the assay on OVCAR-8 ovarian was above 100 µM in each case.

Regarding `COc1cc(N/N=C/C#N)cc(OC)c1OC`, the TGI with UACC-62 melanoma, with T-47D breast, with SW-620 colon, in the assay on MDA-N, in the assay with IGROV1 ovarian and in the assay with A549 NSCLC was above 10 µM throughout. Also, the TGI in the assay on DU-145 prostate, in the assay with SK-OV-3 ovarian and in the assay on OVCAR-8 ovarian was above 10 µM each time.

Consider `Cc1cc2c(cc1C)[n+](=O)c(C#N)c(Cl)n2[O-]`, for which the TGI with UACC-62 melanoma was found to be 29.6 µM; in the assay on BT-549 breast, 38.1 µM; in the assay on SW-620 colon, 41.6 µM; in the assay on MDA-N, 41.6 µM; with IGROV1 ovarian, 33.3 µM; with A549 NSCLC it was 80.8 µM. For the same compound, the TGI came to 43.4 µM with DU-145 prostate, 70.5 µM with SK-OV-3 ovarian and 53.2 µM in the assay on OVCAR-8 ovarian.

For the compound `Nc1nncc2c1ccn2C1OC(CO)C(O)C1O` (configuration not stated), the TGI in the assay with UACC-62 melanoma, in the assay on SW-620 colon, with DLD-1 colon, in the assay on IGROV1 ovarian, in the assay with A549 NSCLC and in the assay with HOP-18 NSCLC was above 100 µM each time. Moreover, the TGI with SK-OV-3 ovarian and in the assay with OVCAR-8 ovarian was above 100 µM throughout.

Turning to `O=C(CCl)NC(Cc1ccc(F)cc1)C(=O)O` (configuration not stated), the TGI in the assay on UACC-62 melanoma, in the assay with SW-620 colon, in the assay on DLD-1 colon, in the assay with IGROV1 ovarian, in the assay on A549 NSCLC and with HOP-18 NSCLC was above 100 µM throughout. Besides, the TGI with SK-OV-3 ovarian and in the assay on OVCAR-8 ovarian was above 100 µM each time.

As to `CCC1CN2CCC1CC2` (configuration not stated), the TGI in the assay with UACC-62 melanoma, in the assay on SW-620 colon, with DLD-1 colon, in the assay with IGROV1 ovarian, with A549 NSCLC and in the assay with HOP-18 NSCLC was above 100 µM in each case. Also, the TGI in the assay with SK-OV-3 ovarian and with OVCAR-8 ovarian was above 100 µM in each case.

Consider `N=c1nc2n(cc1F)[C@@H]1O[C@H](CO)[C@@H](O)[C@@H]1O2`, for which the TGI with UACC-62 melanoma was above 100 µM; with T-47D breast it was 65.2 µM; in the assay with BT-549 breast, above 100 µM; in the assay on SW-620 colon, above 100 µM; in the assay on MDA-N, above 100 µM; with DLD-1 colon it was above 100 µM. The TGI with IGROV1 ovarian was above 92.7 µM; with A549 NSCLC it was above 100 µM; in the assay on HOP-18 NSCLC, above 100 µM; with DU-145 prostate it was above 100 µM; in the assay with SK-OV-3 ovarian, above 100 µM; in the assay with OVCAR-8 ovarian, above 100 µM.

Regarding `C=C1CC[C@@H](Br)C(C)(C)[C@]12CCC(C)(O)C(Cl)C2` (some centres not stated), the TGI turned out to be 41.4 µM with UACC-62 melanoma; 27.2 µM in the assay on SW-620 colon; 32.6 µM in the assay on DLD-1 colon; 44 µM in the assay on IGROV1 ovarian; 45.2 µM in the assay with A549 NSCLC; 59.1 µM in the assay on HOP-18 NSCLC. The TGI in the assay with SK-OV-3 ovarian came to 37.4 µM; in the assay with OVCAR-8 ovarian it was 37 µM.

As for `Oc1c2c(c3c4c1N=CC=4CCN=3)-c1c(Br)cc(Br)cc1CCN2`, the TGI in the assay with UACC-62 melanoma is 2.77 µM; in the assay on SW-620 colon, 6.03 µM; in the assay with DLD-1 colon, 3.85 µM; in the assay with IGROV1 ovarian, 13.8 µM; in the assay on A549 NSCLC it was 10.3 µM; in the assay on HOP-18 NSCLC, 7.91 µM. The TGI stood at 24.9 µM in the assay on SK-OV-3 ovarian and 12.1 µM in the assay on OVCAR-8 ovarian.

Take `CC(=O)OC/C=C/Cn1ncc(=O)[nH]c1=O`: the TGI in the assay with T-47D breast, in the assay on SW-620 colon, in the assay with MDA-N, in the assay on IGROV1 ovarian, in the assay with A549 NSCLC and with DU-145 prostate was above 100 µM each time. In the assay on OVCAR-8 ovarian, this compound displayed a TGI above 100 µM.

For `CC[C@H](Nc1nc(N)nc(C)c1C#N)c1nc2cccc(NCc3ccc(C(=O)NO)cc3)c2c(=O)n1-c1ccccc1`, the GI50 in the assay on T-47D breast was 1.18 µM; in the assay with BT-549 breast, 1.56 µM; in the assay with SW-620 colon, 1.7 µM; in the assay on A549 NSCLC, 2.35 µM; in the assay on DU-145 prostate, 1.98 µM; in the assay with SK-OV-3 ovarian, 2.05 µM. Moreover, the GI50 with OVCAR-8 ovarian was 2.19 µM. The TGI was 4.66 µM in the assay on T-47D breast; 5.2 µM with BT-549 breast; 3.92 µM in the assay with SW-620 colon; 5.43 µM in the assay with A549 NSCLC; 6.53 µM in the assay with DU-145 prostate; 5.03 µM in the assay on SK-OV-3 ovarian. For the same compound, the TGI in the assay on OVCAR-8 ovarian amounted to 6.83 µM.

As for `CCOC(=O)[C@H]1Nc2c(cccc2[N+](=O)[O-])[C@H]2OCC[C@@H]12`, the TGI in the assay with UACC-62 melanoma, with SW-620 colon, in the assay with DLD-1 colon, in the assay with IGROV1 ovarian, with A549 NSCLC and in the assay with HOP-18 NSCLC was above 100 µM in each case. The compound further displayed a TGI in the assay with OVCAR-8 ovarian above 100 µM.

For the origin of these results see PubChem BioAssay (NCI).
